Reference: patent US20220324897A1, “CRYSTAL FORM OF SGLT INHIBITOR AND APPLICATION THEREOF” (SHANDONG DANHONG PHARMACEUTICAL CO., LTD., priority 2019, published 2022)
One block for each compound: values may come before it.

Key:
[1] = Hygroscopicity study by dynamic vapor sorption (DVS); type: physicochemical; details: 25° C. and 80% RH
Description: Dynamic Vapor Sorption (DVS) Method of the Present Invention
Instrument Model: […] Advantage-1 dynamic vapor adsorber
Test conditions: Sample (10-30 mg) is placed in the DVS sample tray for testing.
Detailed DVS parameters are as follows:
Balance: dm/dt=0.002%/min (shortest: 10 min, longest: 180 min)
RH (%) test step range: 0-95-0
Hygroscopicity evaluation and classification are as follows:
SMS DVS Advantage Dynamic Vapor Sorption Intrinsic

[2] = tested on: SD rats; test: Pharmacodynamic study in rats OGTT model; type: in vivo, rat; details: for OGTT Blood glucose levels AUC0-2 hr: SD rats, mean ± standard error
Description: SD rats, male, aged 7-8 weeks, purchased from Zhejiang Weitonglihua Experimental Animal Technology Co. Ltd. are maintained in a special pathogen-free environment, with 4 rats in a single ventilation cage. Beddings and water in all cages are sterilized prior to use. All animals can freely obtain a standard certified commercial laboratory diet.
After the animals are adapted to the environment for one week, they are fasted for 16 hours in a metabolic cage, and randomly divided into different groups according to fasting blood glucose and body weight. The animals are administered with a drug or solvent (2 mL/kg), followed by immediately administration of 50% glucose solution (2 g/kg, 4 mL/kg), 2 hours after the administration of glucose solution, the feed is recovered, and blood samples are collected at 0 min, 15 min, 30 min, 45 min, 60 min, and 120 min for blood glucose testing. All values are expressed as average values. Statistical analysis is carried out using Graphpad Prism 6 double factor variance analysis and evaluated with Tukey's multiple comparison tests. P values less than 0.05 are considered to have statistical significance.

[3] = Solid stability test of crystal form A; type: physicochemical
Description: Each part is placed at the bottom of a HPLC vial and spread into a thin layer. Samples placed in a constant temperature and constant humidity box at 60° C./75% RH and samples placed in a 92.5% RH dryer are sealed with a sealing film on the bottle mouth, and some small holes are made in the sealing film to ensure that the sample can be brought into full contact with the ambient air. Samples placed at 60° C., or under lights or shading conditions are tightly capped (wherein the samples under shading conditions are packaged with a tin foil paper).

[4] = Shading lights, test at the same time with the visible lights + ultraviolet lights group
[5] = Shading lights, test at the same time with the visible lights group
[6] = Visible lights + Ultraviolet lights, illuminance reaches 200 W · hrs/m^2
[7] = Visible lights, illuminance reaches 1.2E+06 Lux · hrs

Hygroscopicity classification [1]: almost no hygroscopicity
ΔW, weight gain caused by hygroscopicity [1]: 0.1483%
Crystal form ([3]; 0 day): Crystal form A
Purity (area %) ([3]; 0 day): 96.48 area %
Crystal form ([3]; 60° C., 5 days): Crystal form A
Purity (area %) ([3]; 60° C., 5 days): 96.38 area %
Crystal form ([3]; 60° C., 10 days): Crystal form A
Purity (area %) ([3]; 60° C., 10 days): 96.41 area %
Crystal form ([3]; 60° C./75% RH, 1 months): Crystal form A
Purity (area %) ([3]; 60° C./75% RH, 1 months): 96.31 area %
Crystal form ([3]; 60° C./75% RH, 2 months): Crystal form A
Purity (area %) ([3]; 60° C./75% RH, 2 months): 96.39 area %
Crystal form ([3]; 60° C./75% RH, 3 months): Crystal form A
Purity (area %) ([3]; 60° C./75% RH, 3 months): 96.37 area %
Crystal form ([3]; 92.5% RH, 5 days): Crystal form A
Purity (area %) ([3]; 92.5% RH, 5 days): 96.41 area %
Crystal form ([3]; 92.5% RH, 10 days): Crystal form A
Purity (area %) ([3]; 92.5% RH, 10 days): 96.47 area %
Crystal form [3, 4]: Crystal form A
Purity (area %) [3, 4]: 96.43 area %
Crystal form [3, 5]: Crystal form A
Purity (area %) [3, 5]: 96.44 area %
Crystal form [3, 6]: Crystal form A
Purity (area %) [3, 6]: 95.75 area %
Crystal form [3, 7]: Crystal form A
Purity (area %) [3, 7]: 96.29 area %
Structure (SMILES): CCc1ccc([C@@H]2O[C@H](SC)[C@@H](O)[C@H](O)[C@H]2O)cc1Cc1ccc(C2=CCC(F)(F)CC2)cc1
OGTT Blood glucose levels AUC0-2 hr ([2]; 1 mg/kg): 1070 mmol/L/min
OGTT Blood glucose levels AUC0-2 hr ([2]; 3 mg/kg): 977 mmol/L/min
OGTT Blood glucose levels AUC0-2 hr ([2]; 10 mg/kg): 881 mmol/L/min
Effect on blood glucose level, AUC0-2hr, conclusion ([2]; rat OGTT, in 2 hours): effectively and significantly reduce the blood glucose level
Solid stability, conclusion ([3]; all tested conditions of Table 3): Conclusion: The crystal forms A of compound of formula (I) has good stability.

Structure (SMILES): CCOc1ccc(Cc2cc([C@@H]3O[C@H](SC)[C@@H](O)[C@H](O)[C@H]3O)ccc2Cl)cc1 [Sotagliflozin, reference compound]
OGTT Blood glucose levels AUC0-2 hr ([2]; 3 mg/kg): 1050 mmol/L/min
